The source of these data is patent US20120076899A1, “SHELF STABLE MONATIN SWEETENED BEVERAGE” (Cargill, Incorporated, priority 2009, published 2012).

SMILES strings stand for the structures.

The nature of the data set: Presence of 3-methyl indole in stored monatin samples (GC, mass spectrometry, olfactometry). Type of data set: physicochemical. The settings on record: not detected in the initial samples (Day 0) nor in samples stored in the dark. From the text:
A compound described as having a musty flavor and odor during some of the organoleptic evaluations is described herein. […] The compound (3-methylindole; 3-MI; skatole) was identified using gas chromatography (GC), mass spectrometry, and olfactometry based on its retention time, mass spectra, and odor profile using the following method.
The volatile components from a sample were purged onto an absorbent and then thermally desorb them into the cold GC inlet for subsequent separation and identification by mass spectrometry. Simultaneously, the GC column effluent was split between the mass spec and olfactory port to determine the specific odor characteristics for compounds that contribute to the overall odor of the sample.
Each sample was extracted and analyzed in duplicate. […]
Each reconstructed total ion current chromatogram (RTICC) was manually reprocessed to 1) identify the compounds by using olfactory and mass spectral library matching. Compounds that were not detected by olfactory but which gave significant response were also identified, and 2) integrate the peaks to obtain areas for relative comparison to the other samples analyzed. […] Corrected areas for each compound were then converted to graphical form to more easily compare samples analyzed during the test.

For the compound `Cc1c[nH]c2ccccc12` [3-methylindole], the “detection of 3-methylindole in stored monatin samples” value is listed as “only found in samples exposed to light”.
